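Assay format: 96-well plates, 48-hour exposure. GI50 is the concentration that inhibits growth by half.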 Calls of active or inactive are those of the source. Rule as the data show it: active = GI50 up to about 1.1 µM and inactive = higher.
How the values were obtained:
Experiment in all cases: growth of human tumour cells (NCI), 48 h
[1] = test system: DMS-114
[2] = test system: SNB-78
[3] = test system: LXFL 529
[4] = test system: DLD-1
[5] = test system: RXF 631
[6] = test system: DMS-273
[7] = test system: XF498
[8] = test system: HOP-18
[9] = test system: BT-549

| Compound | GI50 [1] | GI50 [2] | GI50 [3] | GI50 [4] | GI50 [5] | GI50 [6] | GI50 [7] | GI50 [8] | GI50 [9] |
| --- | --- | --- | --- | --- | --- | --- | --- | --- | --- |
| C/C(CC(=O)Nc1ccc(C)c(C)c1)=N\NC(N)=S | > 100 µM (inactive) | > 100 µM (inactive) | > 100 µM (inactive) | > 100 µM (inactive) | > 100 µM (inactive) | > 100 µM (inactive) | – | – | – |
| Cc1ccc(S(=O)(=O)c2ccccc2[N+](=O)[O-])cc1 | 44.6 µM (inactive) | > 100 µM (inactive) | > 100 µM (inactive) | > 100 µM (inactive) | 49.1 µM (inactive) | > 100 µM (inactive) | > 100 µM (inactive) | – | – |
| O=C1OC(O)C(Oc2ccc(Cl)cc2)=C1Cl (stereo unspecified) | 39.1 µM (inactive) | > 100 µM (inactive) | > 100 µM (inactive) | > 100 µM (inactive) | > 100 µM (inactive) | > 100 µM (inactive) | – | – | – |
| O=C1/C(=C/c2ccccc2)CN(C(=O)OCC(Cl)(Cl)Cl)C/C1=C\c1ccccc1 | 1.95 µM (inactive) | 1.34 µM (inactive) | 1.78 µM (inactive) | 1.91 µM (inactive) | – | 1.5 µM (inactive) | – | 3.57 µM (inactive) | – |
| CCOc1ccc(NC(=O)CC2SC(Nc3ccc(C)cc3)=NC2=O)cc1 (stereo unspecified) | > 100 µM (inactive) | > 100 µM (inactive) | > 100 µM (inactive) | > 100 µM (inactive) | > 100 µM (inactive) | > 100 µM (inactive) | > 100 µM (inactive) | – | – |
| CCCN1CN(C(C(=O)N[C@@H]2C(=O)N3C2SC(C)(C)C3C(=O)O)c2ccc(O)cc2)CSC1=S (stereo partly specified) | 19.1 µM (inactive) | – | 61.4 µM (inactive) | 52.8 µM (inactive) | – | > 100 µM (inactive) | > 100 µM (inactive) | > 100 µM (inactive) | – |
| O=C1C2Nc3ccccc3SC2C(=O)N1c1cccc([N+](=O)[O-])c1 (stereo unspecified) | 44.1 µM (inactive) | > 100 µM (inactive) | 74.3 µM (inactive) | 48.9 µM (inactive) | > 100 µM (inactive) | 1.46 µM (inactive) | > 100 µM (inactive) | – | – |
| C/C(=N\NS(=O)(=O)c1ccccc1)c1ccc(Cl)c(Cl)c1 | 39.2 µM (inactive) | > 100 µM (inactive) | 34.5 µM (inactive) | 41.8 µM (inactive) | – | 85.3 µM (inactive) | > 100 µM (inactive) | 49.8 µM (inactive) | – |
| COC1CC(n2cnc3c(N)ncnc32)OC1CO (stereo unspecified) | > 100 µM (inactive) | – | > 100 µM (inactive) | > 100 µM (inactive) | – | > 100 µM (inactive) | > 100 µM (inactive) | – | – |
| COc1ccc(C2=NNC(=O)OC2c2ccccc2)cc1 (stereo unspecified) | 71.8 µM (inactive) | 95.7 µM (inactive) | 70 µM (inactive) | – | > 100 µM (inactive) | – | 74 µM (inactive) | 57.9 µM (inactive) | – |
| Clc1ccccc1C1=NN(c2ccccc2)C2c3cc(Br)ccc3OCC12 (stereo unspecified) | > 100 µM (inactive) | > 100 µM (inactive) | > 100 µM (inactive) | > 100 µM (inactive) | – | > 100 µM (inactive) | > 100 µM (inactive) | > 100 µM (inactive) | – |
| [O-][n+]1c(-c2ccccc2)c2nc3ccccc3nc2c2ccccc21 | > 100 µM (inactive) | 27.5 µM (inactive) | 7.78 µM (inactive) | > 100 µM (inactive) | > 100 µM (inactive) | > 100 µM (inactive) | > 100 µM (inactive) | – | – |
| CN(C)CC/[N+]([O-])=C(/c1ccccc1)C12CC3CC(CC(C3)C1)C2 | 20.2 µM (inactive) | 19 µM (inactive) | 24 µM (inactive) | 16.1 µM (inactive) | 14 µM (inactive) | – | 13.2 µM (inactive) | 20.9 µM (inactive) | – |
| CCOC(=O)NC(=O)c1cn(C2OC(CO)C(O)C2O)c(=O)[nH]c1=O (stereo unspecified) | > 100 µM (inactive) | – | > 100 µM (inactive) | > 100 µM (inactive) | > 100 µM (inactive) | > 100 µM (inactive) | – | – | – |
| CNS(=O)(=O)NN(C)S(=O)(=O)c1ccc2ccccc2c1 | > 100 µM (inactive) | – | > 100 µM (inactive) | > 100 µM (inactive) | > 100 µM (inactive) | > 100 µM (inactive) | – | – | – |
| O=C1c2cccc(O)c2C(=O)c2c(O)cccc21 [DANTHRON] | 38 µM (inactive) | > 100 µM (inactive) | > 100 µM (inactive) | 45 µM (inactive) | – | 31.6 µM (inactive) | > 100 µM (inactive) | – | – |

| Compound | GI50 [1] | GI50 [2] | GI50 [3] | GI50 [4] | GI50 [5] | GI50 [6] | GI50 [7] | GI50 [8] | GI50 [9] |
| --- | --- | --- | --- | --- | --- | --- | --- | --- | --- |
| O=CC(NC(=O)N(CCCl)N=O)C(O)C(O)C(O)CO (stereo unspecified) | 1040 µM (inactive) | – | – | > 1250 µM (inactive) | – | 1000 µM (inactive) | – | > 1250 µM (inactive) | 499 µM (inactive) |
| CN(/C(=N\O)c1ccccc1)c1ccccc1 | 25.6 µM (inactive) | 28.4 µM (inactive) | 34.8 µM (inactive) | 29.4 µM (inactive) | – | 24.3 µM (inactive) | – | < 0.01 µM (active) | – |
| Cc1[nH]c2ccccc2c1C1Cc2ccccc2N1C(=O)/C=C/C=C/c1ccccc1 (stereo unspecified) | > 100 µM (inactive) | > 100 µM (inactive) | > 100 µM (inactive) | > 100 µM (inactive) | – | > 100 µM (inactive) | – | – | – |
| COC1=C(N=[N+]=[N-])C(=O)c2ncccc2C1=O | 6.85 µM (inactive) | 5.7 µM (inactive) | 1.72 µM (inactive) | 1.65 µM (inactive) | 16.3 µM (inactive) | 12.9 µM (inactive) | 4.74 µM (inactive) | – | 10.8 µM (inactive) |
| O=C(CC1(O)C(=O)Nc2ccc(Br)cc21)c1ccc(Cl)cc1Cl (stereo unspecified) | 20.9 µM (inactive) | 37.8 µM (inactive) | 32.4 µM (inactive) | 47.1 µM (inactive) | 43.9 µM (inactive) | – | – | – | – |
| Nc1ncnc2c1N=CN(Oc1ccccc1)N2 | > 100 µM (inactive) | > 100 µM (inactive) | > 100 µM (inactive) | > 100 µM (inactive) | > 100 µM (inactive) | > 100 µM (inactive) | > 100 µM (inactive) | – | – |
| Cc1cc(N(CCC#N)CCC#N)ccc1/C=C(\NC(=O)/C=C/c1ccccc1)C(=O)N=[N+]=[N-] | > 100 µM (inactive) | 44.4 µM (inactive) | > 100 µM (inactive) | > 100 µM (inactive) | – | > 100 µM (inactive) | 28.5 µM (inactive) | – | – |
| COc1ccc2cc3nc(O)cc(O)c3cc2c1OC | > 100 µM (inactive) | > 100 µM (inactive) | > 100 µM (inactive) | – | > 100 µM (inactive) | – | > 100 µM (inactive) | > 100 µM (inactive) | – |
| N#C/C(=C\c1cn(Cc2ccccc2)c2ccccc12)c1nn(-c2ccccc2)c(N)c1C#N | – | – | – | – | – | – | – | – | 22.3 µM (inactive) |
| O=C1CCCC/C1=C1\C(=O)Nc2cc(F)ccc21 | > 100 µM (inactive) | > 100 µM (inactive) | > 100 µM (inactive) | > 100 µM (inactive) | – | > 100 µM (inactive) | > 100 µM (inactive) | > 100 µM (inactive) | – |
| O=C(CN1C(=O)c2ccccc2C1=O)C(O)CN1C(=O)c2ccccc2C1=O (stereo unspecified) | – | – | – | – | – | – | – | – | 48.1 µM (inactive) |
| CC(=O)CC(=O)ON(C)C(C)=O | > 100 µM (inactive) | > 100 µM (inactive) | > 100 µM (inactive) | > 100 µM (inactive) | – | > 100 µM (inactive) | > 100 µM (inactive) | – | – |
| Clc1cc(Cl)c2cc3cccc[n+]3cc2c1Cl | – | – | – | – | – | – | – | – | 6.76 µM (inactive) |
| O=C(OCCN=C1c2ccccc2CCc2ccccc21)c1cc([N+](=O)[O-])cc([N+](=O)[O-])c1 | – | – | – | – | – | – | – | – | > 100 µM (inactive) |
| CC(CC(=O)Nc1ccc(NC(=O)CC(C)/N=N\C(N)=O)cc1)/N=N\C(N)=O (stereo unspecified) | 15.6 µM (inactive) | – | > 100 µM (inactive) | 34.5 µM (inactive) | – | 41.6 µM (inactive) | > 100 µM (inactive) | > 100 µM (inactive) | – |

Source: ChEMBL document CHEMBL1201862, “PubChem BioAssay data set” (2004)
